Patent US20230416457A1, “DUAL MODALITY UPS […] TUMOR ACIDOSIS IMAGING” (The Board of Regents of The University of Texas System, priority 2018, published 2023)

Columns and labels:
macrophages = conditions: cited from earlier work
[1] = system: orthotopic HN5 head and neck tumors; conditions: mouse, in vivo
Experimental: Female NOD-SCID mice (6-8 weeks) were purchased from UT Southwestern Medical Center Breeding Core. For orthotopic head and neck tumors, HN5 and FaDu (2×10^6 per mouse) were injected into the submental triangle area. One week after inoculation, animals with tumor size 20-100 mm^3 were used for imaging studies. Orthotopic murine 4T1 breast tumor model was established in BalB/C mice by injection of 4T1 (5×10^5 per mouse) cells into the mammary fat pads. GFP-transfected 73C murine glioblastoma tumor model was established by implanting 73C glioma cells intracranially in the left hemisphere of mice. Gliomas (2-4 mm in diameter) were formed within two weeks in mice.
For FDG experiments, mice were fasted for 12 h prior to PET imaging. Each mouse received 150 μCi of FDG in 150 μL of saline intravenously via tail vein injection. PET/CT images were acquired one hour post-injection for 15 mins. The mice were sedated on the imaging bed under 2% isoflurane for the duration of imaging. Immediately after the CT data acquisition that was performed at 80 kV and 500 μA with a focal spot of 58 μm, 15-min static PET scans were conducted. […] Reconstructed CT and PET images were fused and analyzed using Inveon Research Workplace (IRW) software. […] The target activity was quantitatively calculated as percentage injected dose per gram of tissue (% ID/g).

[2] = system: LPS-induced tissue inflammation; design: species or system C57BL/6 immunocompetent mice; conditions: mouse, in vivo

^18F-fluorodeoxyglucose [FDG]
increase of FDG uptake in macrophages by LPS stimulation (macrophages): 2.5 fold
contrast over noise ratio (CNR), FDG-PET [1]: 1.7±0.6
anticipated PET signal in inflamed tissues [2]: strong signals
